Results: PubChem BioAssay AID2060332 (Molecular Pharmacology Branch, DTP, NCI, 2025)

Tested on: LG0567-F671-PDC multi-cell spheroid viability
Assay: Anticancer human tumor LG0567-F671-PDC patient-derived lung adenocarcinoma cell line growth inhibition [IpAb]
Settings: for IC50: curve of first compound; for viability, T/C: stronger effect = lower value
Procedure, shortened: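 Combinations with ipatasertib or abemaciclib were tested on tumour spheroids holding HUVEC (25%) and MSC (15%) alongside 60% malignant cells. Top concentration was at or near clinical Cmax (10 microM if undefined), descending in half-log steps.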
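Note: viability read after 7 days of drug exposure.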
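Throughout, for viability, T/C: 100% = DMSO vehicle control luminescence.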

C=CC(=O)N1CCN(c2nc(=O)n(-c3c(C)ccnc3C(C)C)c3nc(-c4c(O)cccc4F)c(F)cc23)C(C)C1 (stereo not given) + CCN1CCN(Cc2ccc(Nc3ncc(F)c(-c4cc(F)c5nc(C)n(C(C)C)c5c4)n3)nc2)CC1
IC50 (second compound 0.01 µM): < 31.6 nM
IC50 (second compound 0.0316 µM): < 31.6 nM
IC50 (second compound 0.1 µM): < 31.6 nM
IC50 (second compound 0.316 µM): < 31.6 nM
IC50 (second compound 1 µM): < 31.6 nM
viability, T/C (second compound 0.01 µM, first compound 0.0316 µM): 21.1%
viability, T/C (second compound 0.01 µM, first compound 0.1 µM): 19.5%
viability, T/C (second compound 0.01 µM, first compound 0.316 µM): 14.9%
viability, T/C (second compound 0.01 µM, first compound 1 µM): 19.8%
viability, T/C (second compound 0.01 µM, first compound 3.16 µM): 17.1%
viability, T/C (second compound 0.01 µM, first compound 10 µM): 17.5%
viability, T/C (second compound 0.0316 µM, first compound 0.0316 µM): 18.4%
viability, T/C (second compound 0.0316 µM, first compound 0.1 µM): 14.3%
viability, T/C (second compound 0.0316 µM, first compound 0.316 µM): 15.7%
viability, T/C (second compound 0.0316 µM, first compound 1 µM): 15.9%
viability, T/C (second compound 0.0316 µM, first compound 3.16 µM): 13.1%
viability, T/C (second compound 0.0316 µM, first compound 10 µM): 14%
viability, T/C (second compound 0.1 µM, first compound 0.0316 µM): 15.5%
viability, T/C (second compound 0.1 µM, first compound 0.1 µM): 15.8%
viability, T/C (second compound 0.1 µM, first compound 0.316 µM): 16.6%
viability, T/C (second compound 0.1 µM, first compound 1 µM): 13.2%
viability, T/C (second compound 0.1 µM, first compound 3.16 µM): 13.8%
viability, T/C (second compound 0.1 µM, first compound 10 µM): 13.9%
viability, T/C (second compound 0.316 µM, first compound 0.0316 µM): 16.2%
viability, T/C (second compound 0.316 µM, first compound 0.1 µM): 18.4%
viability, T/C (second compound 0.316 µM, first compound 0.316 µM): 22.1%
viability, T/C (second compound 0.316 µM, first compound 1 µM): 18.2%
viability, T/C (second compound 0.316 µM, first compound 3.16 µM): 16.6%
viability, T/C (second compound 0.316 µM, first compound 10 µM): 16%
viability, T/C (second compound 1 µM, first compound 0.0316 µM): 18.6%
viability, T/C (second compound 1 µM, first compound 0.1 µM): 23%
viability, T/C (second compound 1 µM, first compound 0.316 µM): 27.1%
viability, T/C (second compound 1 µM, first compound 1 µM): 18.9%
viability, T/C (second compound 1 µM, first compound 3.16 µM): 25.8%
viability, T/C (second compound 1 µM, first compound 10 µM): 21.1%
